# Test results: US9067920B2, “Compounds useful for inhibiting Chk1” (Eli Lilly and Company, priority 2010, dated 2015)
# Counter-ions that a name gives are not always drawn.
# Columns and labels:
# [1] = test system: HeLa cells; assay: Doxorubicin-induced G2M checkpoint abrogation HeLa cell-based Acumen assay (pHH3); conditions: 125 nM doxorubicin, 7 h compound
# Protocol: An inhibitor of Chk1 will disable the G2M DNA damage checkpoint in p53-minus tumor cells treated with the topoisomerase II inhibitor, doxorubicin. A measurement of G2M checkpoint abrogation is the phosphorylation of histone H3 on serine 10 that occurs after cells traverse the G2M checkpoint and enter mitosis. The following high content imaging assay can be used to measure the phosphorylation histone H3 in cells. HeLa cells are cultured in MEM Media supplemented with 10% (v/v) FBS and plated at 2000 cells per well in poly D-lysine coated clear bottom black plates, 100 μL volume per well. Plates are then incubated in a cell culture incubator for 18-24 h (37° C., 5% CO2 and 95% relative humidity), Following the initial incubation, 20 μL of MEM Media plus 10% FBS containing […] doxorubicin are added to the appropriate wells of the plates resulting in a final concentration of 125 nM. The plates are returned to the incubator for 24 h, sufficient to arrest the cells at the G2M checkpoint. The next day the cells are treated 1.0 with compounds. Compounds are solubilized at […] in 100% DMSO and then diluted to a 10× stock starting at 50 μM in MEM plus 4% (v/v) DMSO. Subsequently, serial dilutions of the compounds (1:2) are prepared over a 50 μM to 0.39 μM range. Thirteen μL of compound stock is added to the appropriate wells in the plate to produce a final DMSO concentration of 0.4% and a final compound concentration range between 5 and 0.039 μM. […] Plates are scanned with ACUMEN EXPLORER™ Laser-scanning fluorescence microplate cytometers using 488 nm excitation (TTP LABTECH LTC) to measure pHH3 and DNA content including 2N, and 4N, The pHH3 positive cells are identified by mean intensity at 519 nm from Alexa 488. […] The final readout for each population is determined by normalizing to the % of total cells producing a final assay output of % pHH3, % 2N, and % 4N. 100% activity is then determined by treating cells with the maximum concentration of an inhibitor control compound at 100 nM to determine the final % activity of each compound. […]
# [2] = molecular target: recombinant Chk2 protein kinase (Homo sapiens, UniProt O96017); assay: Chk2 biochemical assay (CHK2/substrate peptide filter binding); conditions: 60 μM ATP, 1.4 nM Chk2 enzyme
# recombinant Chk2 protein kinase, sequence (O96017 whole entry, the tested form may be a part): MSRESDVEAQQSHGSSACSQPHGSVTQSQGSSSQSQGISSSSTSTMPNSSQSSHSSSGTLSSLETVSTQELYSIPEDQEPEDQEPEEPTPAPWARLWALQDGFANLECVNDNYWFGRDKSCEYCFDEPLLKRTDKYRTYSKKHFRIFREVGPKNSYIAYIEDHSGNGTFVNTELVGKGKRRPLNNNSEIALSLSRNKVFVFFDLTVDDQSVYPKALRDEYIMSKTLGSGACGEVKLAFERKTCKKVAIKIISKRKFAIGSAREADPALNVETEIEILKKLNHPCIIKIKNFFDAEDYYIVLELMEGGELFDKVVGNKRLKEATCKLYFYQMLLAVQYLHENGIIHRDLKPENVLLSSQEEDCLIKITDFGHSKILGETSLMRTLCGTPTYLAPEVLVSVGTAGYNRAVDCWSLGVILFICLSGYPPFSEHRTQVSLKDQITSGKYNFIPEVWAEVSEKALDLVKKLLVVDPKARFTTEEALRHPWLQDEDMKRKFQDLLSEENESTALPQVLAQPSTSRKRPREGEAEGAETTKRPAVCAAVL
# Protocol: The effect of compounds on Chk2 biochemical activity can be determined using a CHK2/substrate peptide filter binding assay. In this assay, a synthetic peptide based on the amino acid sequence residues 206-225 of Cdc25C, is used as a phospho-acceptor substrate for recombinant Chk2 protein kinase. Using γ-^33P-ATP as the phospho-donor substrate, Chk2 transfers the radioactive γ-^33phosphate group to the synthetic peptide. The reaction is measured by capturing the peptide substrate on a cation exchange paper filter plate and scintillation counting of emitted beta particles.
# The kinase reactions (40 μL reaction volumes) are performed in 96-well V-bottom polystyrene plates. Reactions are initiated with the addition of Chk2 enzyme. […]
# Following Chk2 enzyme addition, the reactions are incubated at room temperature for 90 min, and then terminated with the addition of 140 μL of phosphoric acid. […] After sitting for 4 h at room temperature, the radioactivity in the plate is measured using a MicroBeta Trilux microplate scintillation counter (Perkin Elmer).
# For IC50 determination, the percent inhibition for each concentration is calculated using the […] from controls run on each plate. […] Absolute IC50 values are calculated from the resulting curve. […]
# [3] = test system: HT-29 colon carcinoma cells; assay: ECtfs (two-fold sensitization) assay, gemcitabine potentiation, MTS; format: cell-based; conditions: Homo sapiens, HT-29 cells
# Protocol: An inhibitor of Chk1 can potentiate the anti-proliferative activity of gemcitabine (or other cytotoxics) through abrogation of the intra-S phase checkpoint, resulting in sustained and increased DNA damage. The capacity for continued tumor cell proliferation after DNA damage can be analyzed by determining the ability of cells to replicate their DNA. […] In this assay, cells are treated with a dilution series of gemcitabine, and then 22 h later with the compound of Example 3, After an additional 44 h, the relative cell number is assessed by a MTS (3-(4,5-dimethylthiazol-2-yl)-5-(3-carboxymethoxyphenyl)-2-(4-sulfophenyl)-2H-tetrazolium) dye reduction assay. The ECtfs parameter is a measure of the concentration of a Chk1 inhibitor necessary to reduce by half the (1190 concentration of gemcitabine, measured in this assay in the absence of Chk1 inhibition. HT-29 cells (obtained from ATCC), are grown in RPMI 1640 plus 10% (v/v) heat inactivated FBS, The cells are plated at 2.5×10^3 per well, in a volume of 100 μL on 96-well tissue culture plates and incubated for 24 h. Gemcitabine dilutions are prepared at 6× concentrations in McCoy's 5A medium (modified) (1×) and added to wells at 20 μper well. Gemcitabine dilutions were set up with the highest final concentration of gemcitabine being 1.0 μM and dilutions made by three-fold steps to 0.5 nM.
# Chk1 Inhibitor is prepared by dilutions in DMSO to 4000× final concentration, and then diluted 666-fold into McCoy's medium to generate 6× stocks. Chk1 inhibitor dilutions proceed by 2.5-fold steps starting at 25 nM down to 0.3 nM. Twenty-two hours 1.0 after gemcitabine addition, Chk1, inhibitor is added in a volume of 24 μL to wells containing 120 μL of medium plus gemcitabine. Each gemcitabine dilution receives a single Chk1 inhibitor dilution. Control wells received DMSO, gemcitabine, or Chk1 inhibitor alone. Forty-four hours after addition of Chk1 inhibitor, 30 μL of CellTiter 96® AQueous assay reagent, is added to each well and held at room temperature for 1 hour and 45 minutes. Absorbance is read on a SpectraMax 250 (Molecular Devices) spectrophotometer at 490 nm. Data from the SpectraMax spectrophotometer are analyzed with GraphPad Prism 4.0. First, an averaged no cell control absorbance is subtracted from all other values in the matrix of data from each plate. Next, duplicate data points are averaged. Data are normalized for each Chk1 inhibitor concentration, with 0% cell number set as corrected A490=0, and 100% cell number set as the 0 nM gemcitabine mean value. […] Gemcitabine concentrations are converted to log concentrations, and normalized cell number values are converted to percent inhibition (percent inhibition=1.00-normalized value). Transformed data are plotted, and a non-linear regression is run to estimate an IC50 value for gemcitabine at each Chk1 inhibitor concentration. The nonlinear regression is calculated allowing the slope to vary, and without constraints for the top or bottom of the dose-response curves. The ECtfs value is calculated as follows: GI50 values for gemcitabine for each Chk1 inhibitor concentration are determined, plotted, and the concentration of Chk1 inhibitor necessary to decrease the gemcitabine alone GI50 by two-fold is determined by interpolation.
# Compounds within the scope of the invention are tested in this assay run substantially as above. For example, the compound of Example 3 is tested and found to have an ECtfs value of 1.0 nM (SE=0.1, n=3). […]
# [4] = test system: HT-29 colon tumor xenograft; assay: HT-29 tumor xenograft model, subcutaneous administration of Chk1 inhibitor; format: in vivo, nude mice; conditions: HT29, gemcitabine 60 mpk ip alone
# Protocol: (§1) The ability of Chk1 inhibitors to potentiate tumor killing by DNA damaging agents can be determined in vivo using the Calu-6 lung and HT-29 colon tumor xenograft efficacy models. Calu-6 lung cancer cells are cultured in growth media (MEM with Earle's Balanced Salt Solution with L-glutamine supplemented with 10% (v/v) heat inactivated FBS, 1×MEM non-essential amino acids, 1× sodium pyruvate) and HT-29 colon cancer cells (ATCC) are cultured in growth media, (McCoy's 5A medium supplemented with 10% FBS) and expanded.
# (§2) Cells are harvested and washed twice with phosphate buffered saline and 5×10^6 cells (HT-29) or 1×10^6 a cells (Calu-6) in growth media (without serum) are mixed with equal volume of BD Matrigel™ matrix, then injected subcutaneously into the flank of nude mice (CD-1 nu/nu).
# (§3) At about day 16 after implant ([…]), gemcitabine is formulated fresh in saline daily and administered to animals by intraperitoneal route at 60 mg/kg dose. Twenty four hours later animals are administered the compound of Example 3, in 0.2% Tween-80/0.5% methylcellulose subcutaneously BID. After […], dosing is repeated for three additional cycles (Q4Dx4 with the compound of Example 3 offset+24 hours), Tumor growth inhibition (TGI) is calculated as the percent reduction in mean tumor size of a compound treated group from the mean tumor size of the vehicle-treated control group. Compounds within the scope of the invention are tested in this assay run substantially as above.
# [5] = test system: HT-29 colon tumor xenograft; assay: HT-29 tumor xenograft model, oral administration of Chk1 inhibitor; format: in vivo, nude mice; conditions: HT29, gemcitabine 40 mpk ip alone
# Protocol: as §1, §2
# (§4) At about day 16 after implant (150-200 mm^3), gemcitabine is formulated fresh in saline daily and administered to animals by intraperitoneal route at 40 mg/kg dose. Twenty four hours later animals are administered Chk1 compound, in 0.2% Tween-80/0.5% methylcellulose by the oral route MD. After three days of rest, dosing was repeated for three additional cycles (Q5Dx4 with the compound of Example 3 offset+24 hours). Tumor growth inhibition (TGI) is calculated as described in the previous paragraph. Compounds within the scope of the invention are tested in this assay run substantially as above.
# [6] = test system: Calu-6 lung tumor xenograft; assay: Calu-6 tumor xenograft model, subcutaneous administration of Chk1 inhibitor; format: in vivo, nude mice; conditions: Calu 6, gemcitabine 60 mpk ip alone
# Protocol: as §1, §2, §3
# [7] = test system: Calu-6 lung tumor xenograft; assay: Calu-6 tumor xenograft model, oral administration of Chk1 inhibitor; format: in vivo, nude mice; conditions: Calu6, gemcitabine 40 mpk ip alone
# Protocol: as §1, §2, §4
EC50 [1],IC50 [2],SMILES,IC50 ([3]; [Example 3] 0 nM),EC50 ([3]; gemcitabine alone),% TGI at day 38 [4],% TGI at day 50 [5],% TGI at day 47 [6],% TGI at day 37 [7]
0.033 µM,0.012 µM,"COc1nc(C)ccc1-c1cc(Nc2cncc(O[C@@H]3CCCNC3)n2)[nH]n1 [Example 2, (R)-[5-(2-Methoxy-6-mcethyl-pyridin-3-yl)-2H-pyrazol-3-yl]-[6-(piperidin-3-yloxy)-pyrazin-2-yl]-amine methane sulfonic acid salt]",–,–,–,–,–,–
–,–,"Nc1ccn([C@@H]2O[C@H](CO)[C@@H](O)C2(F)F)c(=O)n1 [Gemcitabine, gemcitabine, reference compound]",0.022 µM,0.022 µM,11%,25%,−41%,32%
